Experiments:
[1] = tested on: antibodies in sera from SARS patients (sera 1a, 1b, 2, 6, 37, 62, London, SARS-yellow, SARS-green); assay type: binding, human; parameters: Binding of serum 6 to linear peptides of protein X1 of SARS-CoV Urbani / Binding of serum 37 to linear peptides of protein X1 of SARS-CoV Urbani / Binding of serum 6 to looped/cyclic peptide (PEPSCAN-ELISA) / Binding of serum 37 to looped/cyclic peptide (PEPSCAN-ELISA) / Binding of serum 37 to looped/cyclic peptides of protein X1 of SARS-CoV Urbani / Binding of serum 6 to linear peptides of protein X2 / Binding of serum 37 to linear peptides of protein X2 / Binding of serum 37 to looped/cyclic peptides of protein X2 of SARS-CoV Urbani / Binding of serum 6 to linear peptides of protein M of SARS-CoV Urbani / Binding of serum 37 to linear peptides of protein M of SARS-CoV Urbani / Binding of serum 6 to looped/cyclic peptides of protein M of SARS-CoV Urbani / Binding of serum 37 to looped/cyclic peptides of protein M of SARS-CoV Urbani / Binding of serum 6 to linear peptides of protein X3 of SARS-CoV Urbani / Binding of serum 37 to linear peptides of protein X3 of SARS-CoV Urbani / Binding of serum 37 to looped/cyclic peptides of protein X3 of SARS-CoV Urbani / Binding of serum 6 to linear peptides of protein X4 of SARS-CoV Urbani / Binding of serum 37 to linear peptides of protein X4 of SARS-CoV Urbani / Binding of serum 37 to looped/cyclic peptides of protein X4 of SARS-CoV Urbani / Binding of serum 6 to linear peptides of protein X5 of SARS-CoV Urbani / Binding of serum 37 to linear peptides of protein X5 of SARS-CoV Urbani / Binding of serum 37 to looped/cyclic peptides of protein X5 of SARS-CoV Urbani / Binding of serum 6 to linear peptides of protein N of SARS-CoV Urbani / Binding of serum 37 to linear peptides of protein N of SARS-CoV Urbani / Binding of serum 6 to linear peptide (PEPSCAN-ELISA) / Binding of serum 1a to looped/cyclic peptides of protein N of SARS-CoV Urbani / Binding of serum 1b to looped/cyclic peptides of protein N of SARS-CoV Urbani / Binding of serum 2 to looped/cyclic peptides of protein N of SARS-CoV Urbani / Binding of serum 6 to looped/cyclic peptides of protein N of SARS-CoV Urbani / Binding of serum 37 to looped/cyclic peptides of protein N of SARS-CoV Urbani / Binding of serum 62 to looped/cyclic peptides of protein N of SARS-CoV Urbani / Binding of serum London to looped/cyclic peptides of protein N of SARS-CoV Urbani / Binding of serum SARS-green to looped/cyclic peptides of protein N of SARS-CoV Urbani: unit not given here
[2] = tested on: control sera (pooled serum of ten healthy LUMC hospital workers; commercial negative donor pooled serum from the Dutch bloodbank); assay type: binding, human; parameters: Binding of Control serum LUMC to linear peptides / Binding of Control serum Blood-bank to linear peptides / Binding of Control serum LUMC to looped peptides / Binding of Control Serum Blood-Bank to Looped peptides / Binding of Control serum LUMC to linear peptides of the protein M of SARS-CoV Urbani / Binding of Control serum Blood-bank to linear peptides of the protein M of SARS-CoV Urbani / Binding of Control serum LUMC to looped peptides of the protein M of SARS-CoV Urbani / Binding of Control Serum Blood-Bank to Looped peptides of the protein M of SARS-CoV Urbani: unit not given here
[3] = tested on: rabbit serum obtained by immunizing a rabbit with the SARS-CoV strain Frankfurt 1; assay type: binding; parameters: Binding of a rabbit serum to linear peptides / Binding of a rabbit serum to looped peptides / Rabbit serum linear peptides / Rabbit serum looped peptides / Binding of a rabbit serum to linear peptides of protein N of SARS-CoV Urbani (Rabbit serum linear peptides) / Binding of a rabbit serum to looped/cyclic peptides of protein N of SARS-CoV Urbani (Rabbit serum looped peptides): unit not given here
[4] = tested on: recombinant human anti-SARS-CoV antibody 03-018; assay type: binding; parameters: Binding of antibody 03-018 to linear peptides of the N protein of SARS-CoV Urbani / Binding of antibody 03-018 to looped/cyclic peptides of the N protein of SARS-CoV Urbani: unit not given here

Sequence: RGNSRNSTPGSSRGN
- Binding of serum 1a to linear peptide (PEPSCAN-ELISA) [1]: 0.7
- Binding of serum 1a to looped/cyclic peptides of protein N of SARS-CoV Urbani [1]: 0.8
- Binding of serum 1b to linear peptide (PEPSCAN-ELISA) [1]: 0.4
- Binding of serum 1b to looped/cyclic peptides of protein N of SARS-CoV Urbani [1]: 0.6
- Binding of serum 2 to linear peptide (PEPSCAN-ELISA) [1]: 0.2
- Binding of serum 2 to looped/cyclic peptides of protein N of SARS-CoV Urbani [1]: 0.4
- Binding of serum 6 to linear peptide (PEPSCAN-ELISA) [1]: 0.2
- Binding of serum 6 to looped/cyclic peptides of protein N of SARS-CoV Urbani [1]: 0.4
- Binding of serum 37 to linear peptide (PEPSCAN-ELISA) [1]: 0.7
- Binding of serum 37 to looped/cyclic peptides of protein N of SARS-CoV Urbani [1]: 0.6
- Binding of serum 62 to linear peptide (PEPSCAN-ELISA) [1]: 0.7
- Binding of serum 62 to looped/cyclic peptides of protein N of SARS-CoV Urbani [1]: 0.5
- Binding of serum London to linear peptide (PEPSCAN-ELISA) [1]: 0.4
- Binding of serum London to looped/cyclic peptides of protein N of SARS-CoV Urbani [1]: 0.4
- Binding of serum SARS-green to linear peptide (PEPSCAN-ELISA) [1]: 0.2
- Binding of serum SARS-green to looped/cyclic peptides of protein N of SARS-CoV Urbani [1]: 0.3
- Binding of serum SARS-yellow to linear peptide (PEPSCAN-ELISA) [1]: 0.8
- Binding of serum SARS-yellow to looped/cyclic peptides of protein N of SARS-CoV Urbani [1]: 0.5
- Binding of Control Serum Blood-Bank to Looped peptides [2]: 0.6
- Binding of Control serum Blood-bank to linear peptides [2]: 0.8
- Binding of Control serum LUMC to linear peptides [2]: 0.6
- Binding of Control serum LUMC to looped peptides [2]: 0.6
- Binding of a rabbit serum to linear peptides of protein N of SARS-CoV Urbani (Rabbit serum linear peptides) [3]: 0.2
- Binding of a rabbit serum to looped/cyclic peptides of protein N of SARS-CoV Urbani (Rabbit serum looped peptides) [3]: 0.7
- Binding of antibody 03-018 to linear peptides of the N protein of SARS-CoV Urbani [4]: 0.1
- Binding of antibody 03-018 to looped/cyclic peptides of the N protein of SARS-CoV Urbani [4]: 0.2

Sequence: HIGTRNPNNNAATVL
- Binding of serum 1a to linear peptides of protein N of SARS-CoV Urbani [1]: 0.3
- Binding of serum 1a to looped/cyclic peptides of protein N of SARS-CoV Urbani [1]: 0.6
- Binding of serum 1b to linear peptides of protein N of SARS-CoV Urbani [1]: 0.2
- Binding of serum 1b to looped/cyclic peptides of protein N of SARS-CoV Urbani [1]: 0.5
- Binding of serum 2 to linear peptides of protein N of SARS-CoV Urbani [1]: 0.4
- Binding of serum 2 to looped/cyclic peptides of protein N of SARS-CoV Urbani [1]: 0.9
- Binding of serum 6 to linear peptides of protein N of SARS-CoV Urbani [1]: 0.2
- Binding of serum 6 to looped/cyclic peptides of protein N of SARS-CoV Urbani [1]: 0.6
- Binding of serum 37 to linear peptides of protein N of SARS-CoV Urbani [1]: 0.9
- Binding of serum 37 to looped/cyclic peptides of protein N of SARS-CoV Urbani [1]: 1.2
- Binding of serum 62 to linear peptides of protein N of SARS-CoV Urbani [1]: 0.8
- Binding of serum 62 to looped/cyclic peptides of protein N of SARS-CoV Urbani [1]: 1.3
- Binding of serum London to linear peptides of protein N of SARS-CoV Urbani [1]: 0.5
- Binding of serum London to looped/cyclic peptides of protein N of SARS-CoV Urbani [1]: 0.7
- Binding of serum SARS-green to linear peptides of protein N of SARS-CoV Urbani [1]: 0.5
- Binding of serum SARS-green to looped/cyclic peptides of protein N of SARS-CoV Urbani [1]: 0.9
- Binding of serum SARS-yellow to linear peptides of protein N of SARS-CoV Urbani [1]: 0.7
- Binding of serum SARS-yellow to looped/cyclic peptides of protein N of SARS-CoV Urbani [1]: 0.8
- Binding of Control Serum Blood-Bank to Looped peptides [2]: 1.2
- Binding of Control serum Blood-bank to linear peptides [2]: 0.9
- Binding of Control serum LUMC to linear peptides [2]: 0.9
- Binding of Control serum LUMC to looped peptides [2]: 1.2
- Binding of a rabbit serum to linear peptides of protein N of SARS-CoV Urbani (Rabbit serum linear peptides) [3]: 0.1
- Binding of a rabbit serum to looped/cyclic peptides of protein N of SARS-CoV Urbani (Rabbit serum looped peptides) [3]: 0.7
- Binding of antibody 03-018 to linear peptides of the N protein of SARS-CoV Urbani [4]: 0.1
- Binding of antibody 03-018 to looped/cyclic peptides of the N protein of SARS-CoV Urbani [4]: 0.3
